≈ marks a conversion by molar mass, not a printed value. Read-outs that look alike come from different tables or passages of the source.
Columns and labels:
E. coli ∆tolC JW5503-1 = experiment: MIC, E. coli ∆tolC; format: cell-based; conditions: for MIC: Escherichia coli, read-out: MIC tolC; for MIC tolC: E. coli ∆tolC
Procedure: (§1) The inoculum used for all the experiments is derived from a single seed lot that is maintained as glycerol stocks at −80 °C and are sub cultured on LB plate for isolated colonies. Single colony of each strain is grown in M9 medium. All test compound stocks and dilutions are prepared in DMSO. Serial two-fold dilutions of compounds are prepared separately, with the concentrations ranging from 2 mg/mL to 0.015 mg/mL. To 150 µl (3–7 × 10^5 CFU/ml) of bacterial culture in 96 well microtitre plates, 3 μL compound from each of the dilutions is added to respective wells to obtain final concentrations ranging from 40 µg/mL to 0.3 µg/mL of the test compounds. Media control, culture control and appropriate reference drug controls are included. […] Growth is monitored by checking absorbance at 600 nm (A600). […] The samples from MIC and above concentrations are plated for MBC (Minimum Bactericidal Concentration). The samples are diluted 1:10 and plated on LB agar plates. […] The killing kinetics is determined by enumerating survivors at various time points following compound exposure. E. coli cells (~10^7 CFU/ml; A600 of 0.1) are treated with various concentrations (40 µg/mL to 0.3 µg/mL) of compounds in a 96-well microtitre plate. At various time intervals (0 to 8 h), 30 μl volumes of treated cultures are serially diluted and plated on LB agar plates. […] Data is expressed as the log10 CFU for each drug treatment.

E. coli ∆acrB JW0451-2 = experiment: MIC, E. coli ∆acrB; format: cell-based; conditions: for MIC: Escherichia coli, read-out: MIC acrB; for MIC acrB: E. coli ∆acrB
Procedure: as §1

[1] = tested on: wild-type E. coli CGSC#7636 (BW25113); experiment: MIC, wild-type E. coli; format: cell-based; conditions: for MIC: Escherichia coli; for MIC WT: E. coli WT BW25113
Procedure: as §1

E. coli ∆nfsB = experiment: microbe, parasite or virus in culture; format: cell-based; conditions: Escherichia coli, read-out: MIC ∆nfsB
Procedure: (§2) To assess the biological relevance of the interacting protein and establish the link between nitroreductases to the antibacterial activity of NTC compounds, single (ΔnfsA or ΔnfsB) and double knockouts (ΔnfsA & ΔnfsB) of nitroreductases were generated by phage transduction using strains from the Keio collection.
as §1
The wild-type E. coli strain BW25113 and the entire Keio collection of knockouts[22] is maintained as glycerol stocks at −80 °C in 96-well deep well blocks. […] These are sub cultured in 150 µl of LB broth (Kanamycin 50 ug/ml, except for the wild-type strain) in 96 well microtiter plates and then adapted into M9 medium with 0.4% glucose. […] Cultures of single gene knockouts that show an altered MIC as compared to that of the wild type are scored as ‘Hits’.

E. coli ∆nfsA + ∆nfsB = experiment: microbe, parasite or virus in culture; format: cell-based
Procedure: as §2, §1

E. coli ∆nfsA = experiment: microbe, parasite or virus in culture; format: cell-based; conditions: Escherichia coli, read-out: MIC ∆nfsA
Procedure: as §2, §1

NfsA = molecular target: T1, NfsA (Escherichia coli, UniProt P17117); experiment: Nitroreductase activity assay, NfsA; format: biochemical, E. coli
T1 construct: His-tag; made in house; host or cells: E. coli BL21(DE3), pET28a (pET-nfsA)
T1 sequence (P17117 whole entry): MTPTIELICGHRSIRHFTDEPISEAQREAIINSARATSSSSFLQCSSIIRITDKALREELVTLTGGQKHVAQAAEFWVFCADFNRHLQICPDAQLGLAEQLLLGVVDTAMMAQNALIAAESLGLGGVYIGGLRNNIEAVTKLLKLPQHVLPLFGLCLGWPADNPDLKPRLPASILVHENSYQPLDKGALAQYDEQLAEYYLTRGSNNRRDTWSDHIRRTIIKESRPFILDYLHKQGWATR
Procedure: (§3) Enzyme reducing each of the substrates are measured by monitoring the concomitant oxidation of NADPH by NfsA and NADH by NfsB in a fluorescence based assay. The reduction in fluorescence due to the NADH oxidation (excitation 350 nm, emission 460 nm) and NADPH oxidation (excitation 340 nm, emission 485 nm) is recorded using a TECAN Infinite M200Pro spectrophotometer, in half area solid black microtiter plates. This change in fluorescence directly corelates to the reduction of the nitro-compounds in the reaction. The NfsA assays is performed by initiating the reactions with 40 μM NADPH and 10 nM NfsA in 50 mM Tris-HCl (pH 7.4), 5 mM EDTA against 20 μM substrate (5 μl of compounds/substrate dissolved in 100% DMSO) in a total reaction volume of 100 μl at 25 °C. Similarly, the NfsB assay is also performed by initiating the reactions with 40 μM NADH and 70 nM NfsB in 50 mM Tris-HCl (pH 7.4), 5 mM EDTA against 20 μM substrate in a total reaction volume of 100 μl. […] All reactions are performed in replicates of two or more and the fluorescence measurements are made at 10 second intervals for 5–10 minutes.
(§4) Low solubility of the compounds/substrates under the NfsA and NfsB assay conditions precluded determination of their Km. […] The relative fluorescence units (RFU) obtained due to NADPH (excitation 340 nm, emission 485 nm) or NADH (excitation 350 nm, emission 460 nm) oxidation of the first 90 sec reaction is used to compute the slopes using linear regression analysis on GraphPad Prism. Appropriate blank reactions are included to account for background fluorescence/quenching from each of the components such as DMSO, the compound itself and auto-oxidation of NADPH or NADH. Activity of NfsB with a known substrate such as nitrofurantoin is used as a benchmark to plot the relative activities with all the test compounds.

NfsB = molecular target: T2, NfsB (Escherichia coli, UniProt P38489); experiment: Nitroreductase activity assay, NfsB; format: biochemical, E. coli
T2 construct: His-tag; made in house; host or cells: E. coli BL21(DE3), pET28a (pET-nfsB)
T2 sequence (P38489 whole entry): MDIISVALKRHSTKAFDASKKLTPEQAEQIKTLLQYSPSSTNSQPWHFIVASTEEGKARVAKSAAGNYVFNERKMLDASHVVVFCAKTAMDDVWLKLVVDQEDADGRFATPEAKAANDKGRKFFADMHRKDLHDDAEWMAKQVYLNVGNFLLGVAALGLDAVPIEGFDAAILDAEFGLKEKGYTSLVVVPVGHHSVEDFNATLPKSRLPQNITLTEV
Procedure: as §3, §4

[2] = BW25113, E. coli WT BW25113, read-out: MIC WT

| Compound | MIC (E. coli ∆tolC JW5503-1) [µg/mL] | MIC (E. coli ∆acrB JW0451-2) [µg/mL] | MIC [1, 2] [µg/mL] | further results |
| --- | --- | --- | --- | --- |
| CCOc1cc(-c2csc(NC(=O)c3ccc([N+](=O)[O-])s3)n2)ccc1Cl [compound 22, N-(4-(4-chloro-3-ethoxyphenyl)thiazol-2-yl)-5-nitrothiophene-2-carboxamide] | 0.6 (≈ 1.46 µM) | 1.25 (≈ 3.05 µM) |  | MIC ([1]; BW25113, read-out: MIC WT): 1.25 µg/mL (≈ 3.05 µM) |
| Cc1sc(NC(=O)c2ccc([N+](=O)[O-])s2)nc1-c1ccc(F)cc1 [compound 9, N-(4-(4-Fluorophenyl)-5-methylthiazol-2-yl)-5-nitrothiophene-2-carboxamide] | 0.6 (≈ 1.65 µM) | 0.6 (≈ 1.65 µM) | > 40 |  |
| COc1cc(-c2csc(NC(=O)c3ccc([N+](=O)[O-])s3)n2)ccc1C(F)(F)F [compound 23, N-(4-(3-methoxy-4-(trifluoromethyl)phenyl)thiazol-2-yl)-5-nitrothiophene-2-carboxamide] | 1.25 (≈ 2.91 µM) | 2.5 (≈ 5.82 µM) | 2.5 (≈ 5.82 µM) |  |
| Cc1cc(F)ccc1-c1csc(NC(=O)c2ccc([N+](=O)[O-])s2)n1 [compound 18, N-(4-(4-fluoro-2-methylphenyl)thiazol-2-yl)-5-nitrothiophene-2-carboxamide] | 0.3 (≈ 0.826 µM) | 0.6 (≈ 1.65 µM) | 2.5 (≈ 6.88 µM) |  |
| CN(C)Cc1sc(NC(=O)c2ccc([N+](=O)[O-])s2)nc1-c1ccc(F)cc1 [compound 10, N-(5-((dimethylamino)methyl)-4-(4-fluorophenyl)thiazol-2-yl)-5-nitro thiophene-2-carboxamide] | 2.5 (≈ 6.15 µM) | 2.5 (≈ 6.15 µM) | > 40 | fold change of MIC in ∆tolC (E. coli ∆tolC JW5503-1; compared to 9): four fold |
| O=C(Nc1nc(-c2ccc(Cl)c(F)c2)cs1)c1ccc([N+](=O)[O-])s1 [compound 21, N-(4-(4-Chloro-3-fluorophenyl)thiazol-2-yl)-5-nitrothiophene-2-carboxamide] | 2.5 (≈ 6.51 µM) | 1.25 (≈ 3.26 µM) |  | MIC ([1]; BW25113, read-out: MIC WT): 1.25 µg/mL (≈ 3.26 µM) |
| 5-Nitro-N-(4-(6-(trifluoromethyl)pyridin-3-yl)thiazol-2-yl)thiophene-2-carboxamide [compound 17] |  |  |  | MIC tolC (E. coli ∆tolC JW5503-1): 10 µg/mL; MIC acrB (E. coli ∆acrB JW0451-2): 10 µg/mL; MIC WT [1]: > 40 µg/mL |
| O=C(Nc1nc(-c2ccc(OC(F)(F)F)cc2)cs1)c1ccc([N+](=O)[O-])s1 [compound 16, 5-Nitro-N-(4-(4-(trifluoromethoxy)phenyl)thiazol-2-yl)thiophene-2-carboxamide] | 0.3 (≈ 0.722 µM) | 1.25 (≈ 3.01 µM) | 5 (≈ 12 µM) |  |
| Cc1sc(NC(=O)c2ccc(C(F)(F)F)s2)nc1-c1ccccc1 [compound 8, N-(5-Methyl-4-phenylthiazol-2-yl)-5-(trifluoromethyl) thiophene-2-carboxamide] | > 40 | > 40 | > 40 |  |
| N#Cc1ccc(-c2csc(NC(=O)c3ccc([N+](=O)[O-])s3)n2)cc1 [compound 14, N-(4-(4-cyanophenyl)thiazol-2-yl)-5-nitrothiophene-2-carboxamide] | 20 (≈ 56.1 µM) | 20 (≈ 56.1 µM) | > 40 | fold loss in MIC against ∆tolC (E. coli ∆tolC JW5503-1; compared to compound 12): > 100 fold; MIC WT [1]: >40 µg/mL; MIC (E. coli ∆nfsB): > 40 µg/mL; MIC (E. coli ∆nfsA + ∆nfsB; Escherichia coli, read-out: MIC ∆nfsA + ∆nfsB): > 40 µg/mL; antibacterial activity in double knockout (in words) (E. coli ∆nfsA + ∆nfsB; ΔnfsA and ΔnfsB double knockout strain): inactive; MIC (E. coli ∆nfsA): > 40 µg/mL; NfsA activity (rate of compound conversion) (NfsA; 20 μM compound, 40 μM NADPH, 10 nM NfsA, slope of initial velocity): 0.20 µM/min; conversion by NfsA (in words) (NfsA; biochemical assay): not converted; NfsB activity (rate of compound conversion) (NfsB; 20 μM compound, 40 μM NADH, 70 nM NfsB, slope of initial velocity): 1.31 µM/min; conversion by NfsB (in words) (NfsB; biochemical assay): not converted |
| O=C(Nc1nc(-c2cc(F)cc(F)c2)cs1)c1ccc([N+](=O)[O-])s1 [compound 24, N-(4-(3,5-difluorophenyl)thiazol-2-yl)-5-nitrothiophene-2-carboxamide] | 0.3 (≈ 0.817 µM) | 0.3 (≈ 0.817 µM) | > 20 |  |
| O=C(Nc1nc(-c2ccc(F)c(F)c2)cs1)c1ccc([N+](=O)[O-])s1 [compound 11, N-(4-(3,4-Difluorophenyl)thiazol-2-yl)-5-nitrothiophene-2-carboxamide] | 0.15 (≈ 0.408 µM) | 0.3 (≈ 0.817 µM) | 0.6 (≈ 1.63 µM) |  |
| COc1cc(-c2csc(NC(=O)c3ccc([N+](=O)[O-])s3)n2)ccc1F [compound 19, N-(4-(4-fluoro-3-methoxyphenyl)thiazol-2-yl)-5-nitrothiophene-2-carboxamide] | 0.6 (≈ 1.58 µM) | 0.3 (≈ 0.791 µM) | 1.25 (≈ 3.29 µM) |  |
| N-(4-(3-Fluoro-4-methylphenyl)thiazol-2-yl)-5-nitrothiophene-2-carboxamide [compound 13] |  |  |  | MIC tolC (E. coli ∆tolC JW5503-1): 0.3 µg/mL; MIC acrB (E. coli ∆acrB JW0451-2): 0.3 µg/mL; MIC WT [1]: 1.25 µg/mL |

Reference: PMC5940854, “Nitrothiophene carboxamides, a novel narrow spectrum antibacterial series: Mechanism of action and Efficacy” (Scientific Reports, 2018)
